According to US20140161720A1, “TREATMENT OF ANGIOGENIC- OR VASCULAR-ASSOCIATED DISEASES” (THE GENERAL HOSPITAL CORPORATION, priority 2011, published 2014):

Legend:
Cdc42 = Cdc42 activation pull-down assay (PAK-PBD) in HUVECs; type: cell-based, human
Method: Rac1 and cdc42 activities were measured with a Rac1 (BK035) activation assay biochem kit (Cytoskeleton) according to the manufacturer protocol. In brief, human umbilical vein endothelial cells (HUVECs) were bovine brain extract-starved for 12 hours in 1% FBS-EGM (Lonza) and pretreated with various concentrations of DAL for 30 minutes at 37° C. The HUVECs were then stimulated with VEGF at […] for 15 minutes at 37° C. After stimulation, the cells were immediately incubated on ice, washed twice with PBS, and lysed with lysis buffer. The lysates were pre-cleared and added with 15 μl of PAK-PBD beads for pull-down of activated Rac1 or cdc42. After rocking at 4° C. for 1 hour, the beads were washed once and boiled at 100° C. for 2 minutes. The protein lysates were then resolved in a 8-16% gradient gel (Invitrogen) and transferred to a PVDF membrane. Primary antibodies (anti-Rac1, 1:1000, cytoskeleton or anti-cdc42, 1:1000, cell signaling) were added to bind to the protein overnight at 4° C., followed by incubation with HRP-conjugated secondary antibodies. Protein activity was measured by the standard ECL method (Amersham).
Without wishing to be bound by theory, DAL brings about its antivascular effects by destabilizing cell adhesion through the actin cytoskeleton. […] Therefore, potential targets of DAL in signaling pathways involved in actin remodeling were evaluated. […]

IDO = biological target: T1, IDO (Homo sapiens, UniProt P14902); assay: IDO activity in HEK 293 cells expressing IDO (kynurenine, spectrophotometric); type: cell-based; conditions: kynurenine readout, 10-dose threefold dilutions
T1 construct: expressed in transfected cells; host or cells: HEK 293
T1 sequence (P14902 whole entry): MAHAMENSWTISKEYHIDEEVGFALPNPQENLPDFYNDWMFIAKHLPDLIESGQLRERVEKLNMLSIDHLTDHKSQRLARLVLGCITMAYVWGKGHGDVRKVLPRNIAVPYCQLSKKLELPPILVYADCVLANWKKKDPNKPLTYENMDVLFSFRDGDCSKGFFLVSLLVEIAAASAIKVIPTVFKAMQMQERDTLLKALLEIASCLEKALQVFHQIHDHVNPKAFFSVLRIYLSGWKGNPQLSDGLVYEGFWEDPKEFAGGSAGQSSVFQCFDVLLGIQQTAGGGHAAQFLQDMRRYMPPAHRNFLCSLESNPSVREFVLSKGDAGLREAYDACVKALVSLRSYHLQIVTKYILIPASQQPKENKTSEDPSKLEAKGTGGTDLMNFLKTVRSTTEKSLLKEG
Method: The IDO activity was analyzed by the presence of kynurenine with a spectrophotometric assay. DAL was tested in a 10-dose IC50 mode with threefold serial dilutions (0.1 μM, 0.3 μM, 0.9 μM, 2.7 μM, 8.1 μM, 24.3 μM, 72.9 μM, 218.7 μM, 656 μM and 2000 μM). […] DAL binds concurrently with the tryptophan substrate (Trp) and prevents the closure of the binding site lid that is critical for the reaction catalysis.
To determine whether DAL is an immuno-modulator, the effect of DAL on IDO activity was measured. To monitor IDO enzymatic activity, HEK 293 cells were engineered to express IDO and treated with DAL in a 10-dose IC50 mode with threefold serial dilutions. The IDO activity was analyzed by the presence of kynurenine (the first stable catabolite downstream of IDO) with a spectrophotometric assay (Katz et al., 2008; Littlejohn et al., 2000). […] Because DAL inhibits recombinant purified IDO in the enzymatic assay, it is likely that DAL physically interacts with IDO1, forming a complex that represses IDO1 activity. To elucidate a possible structural basis for this inhibition, comparative modeling and molecular docking were used (FIGS. 9A-9D). […] It was therefore assessed that if lid closure may be a critical step for the efficient reaction catalysis by IDO. […]

CC1(C)C=CC2=C(O1)C(=O)c1ccccc1C2=O [DAL, dehydro-alpha-lapachone]
Cdc42 activity (Cdc42): no effect
IC50 (IDO): ~300 nM
